Data reported in patent US20260062422A1 (Halda Therapeutics OpCo, Inc., priority 2022, published 2026).

How the values were obtained:
[1] = tested on: T-Rex 293 cell line SC3 cells having increased expression of androgen receptor protein due to exposure to doxycycline; assay: Cellular growth inhibition, T-Rex 293 SC3 cells with doxycycline (androgen receptor induced), CellTiter-Glo; format: cell-based; conditions: T-Rex 293 SC3 cells with 10 ng/mL doxycycline (increased androgen receptor expression)
In short: (§1)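 Doxycycline-inducible androgen receptor T-Rex 293 clone SC3, seeded at 2500/well in phenol red-free DMEM with 10% charcoal-dextran FBS, without doxycycline or with 10 ng/mL to induce receptor. Compound added after 24 h (0.5% DMSO), 72 h at 37 °C; CellTiter-Glo 2.0 luminescence, GI50 by four-parameter fit.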

VCaP cells = assay: Cellular growth inhibition assay for VCaP cells, CellTiter-Glo; format: cell-based, human; conditions: 72 hours treatment, CellTiter-Glo 2.0
In short: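 GI50 values come from four-parameter curve fits of luminescence data normalized to a zero baseline. Compound, in medium with 0.5% DMSO, was added one day after plating and left for 72 h before CellTiter-Glo 2.0 addition.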

T47D cells = assay: Cellular growth inhibition assay for T47D cells, CellTiter-Glo; format: cell-based, human; conditions: 72 hours treatment, CellTiter-Glo 2.0 cell viability
In short: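 Growth inhibition as GI50, fitted with four parameters to CellTiter-Glo luminescence after 72 h of compound exposure (0.5% DMSO). Cells were T47D, grown in insulin-supplemented (0.2 units/mL) DMEM with 10% FBS and treated one day post-seeding.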

[2] = tested on: T-Rex 293 cell line SC3 cells lacking increased expression of androgen receptor protein; assay: Cellular growth inhibition, T-Rex 293 SC3 cells without doxycycline, CellTiter-Glo; format: cell-based; conditions: T-Rex 293 SC3 cells not exposed to doxycycline, CellTiter-Glo 2.0
In short: as §1

Row | Structure (SMILES) | GI50 ([1]; 72 h) [µM] | GI50 (VCaP cells; Homo sapiens, VCaP, 72 h) [µM] | GI50 (T47D cells; Homo sapiens, T47D, 72 h) [µM] | GI50 ([2]; 72 h) [µM] | GI50 ([1]; 72 hours) [µM] | GI50 (VCaP cells) [µM] | GI50 (T47D cells) [µM] | GI50 ([2]; 72 hours) [µM]
1 | Cc1sc2c(c1C)C(c1ccc(-c3cc(C4CCN(c5ncc(C(=O)N[C@H]6C(C)(C)[C@H](Oc7ccc(C#N)c(Cl)c7)C6(C)C)cn5)CC4)cs3)cc1)=N[C@@H](Cc1ncco1)c1nnc(C)n1-2 [Compound I-480] | < 0.5 | < 0.5 | > 3 | > 3 | – | – | – | –
2 | Cc1sc2c(c1C)C(c1ccc(OC3CC4(CCN(c5ncc(C(=O)N[C@H]6C(C)(C)[C@H](Oc7ccc(C#N)c(Cl)c7)C6(C)C)cn5)CC4)C3)cc1)=N[C@@H](Cc1ncon1)c1nnc(C)n1-2 [Compound I-279] | < 0.5 | 1.5 to 3 | < 0.5 | > 3 | – | – | – | –
3 | Cc1sc2c(c1C)C(c1ccc(O[C@@H]3CCC4(C3)CN(c3ncc(C(=O)N[C@H]5C(C)(C)[C@H](Oc6ccc(C#N)c(Cl)c6)C5(C)C)cn3)C4)cc1)=N[C@@H](Cc1ncco1)c1nnc(C)n1-2 [Compound I-191] | < 0.5 | < 0.5 | < 0.5 | < 0.5 | – | – | – | –
4 | Cc1sc2c(c1C)C(c1ccc(O[C@@H]3CCOC34CN(c3ncc(C(=O)N[C@H]5C(C)(C)[C@H](Oc6ccc(C#N)c(Cl)c6)C5(C)C)cn3)C4)cc1)=N[C@@H](Cc1ncco1)c1nnc(C)n1-2 [Compound I-184] | < 0.5 | < 0.5 | < 0.5 | < 0.5 | – | – | – | –
5 | Cc1sc2c(c1C)C(c1ccc(CCO[C@H]3CCCN(c4ncc(C(=O)N[C@H]5C(C)(C)[C@H](Oc6ccc(C#N)c(Cl)c6)C5(C)C)cn4)C3)cc1)=N[C@@H](C)c1nnc(C)n1-2 [Compound I-354] | < 0.5 | < 0.5 | 1.5 to 3 | > 3 | – | – | – | –
6 | Cc1sc2c(c1C)C(c1ccc(CCC(=O)N3CCN(c4ncc(C(=O)N[C@H]5C(C)(C)[C@H](Oc6ccc(C#N)c(Cl)c6)C5(C)C)cn4)CC3)cc1)=N[C@@H](Cc1ncco1)c1nnc(C)n1-2 [Compound I-287] | < 0.5 | < 0.5 | < 0.5 | < 0.5 | – | – | – | –
7 | CC[C@@H]1N=C(c2ccc(CC3CCC4(C3)CN(c3ncc(C(=O)N[C@H]5C(C)(C)[C@H](Oc6ccc(C#N)c(Cl)c6)C5(C)C)cn3)CCO4)cc2)c2c(sc(C)c2C)-n2c(C)nnc21 (some centres unmarked) [Compound I-615] | – | – | – | – | < 0.5 | < 0.5 | > 3 | < 0.5
8 | Cc1sc2c(c1C)C(c1ccc(CC3CC4(CCN(c5ccc(C(=O)N[C@H]6C(C)(C)[C@H](Oc7ccc(C#N)c(Cl)c7)C6(C)C)cn5)CC4)C3)cc1)=N[C@@H](Cc1ncco1)c1nnc(C)n1-2 [Compound I-548] | < 0.5 | 0.5 to 1.5 | < 0.5 | < 0.5 | – | – | – | –
9 | Cc1sc2c(c1C)C(c1ccc([C@H]3CCN(C(=O)[C@@H]4CCCN(c5ncc(C(=O)N[C@H]6C(C)(C)[C@H](Oc7ccc(C#N)c(Cl)c7)C6(C)C)cn5)C4)C3)cc1)=N[C@@H](Cc1ncco1)c1nnc(C)n1-2 [Compound I-384] | < 0.5 | < 0.5 | < 0.5 | < 0.5 | – | – | – | –
10 | CCNC(=O)C[C@@H]1N=C(c2ccc(CCCN3CCN(c4ncc(C(=O)N[C@H]5C(C)(C)[C@H](Oc6ccc(C#N)c(Cl)c6)C5(C)C)cn4)CC3)cc2)c2c(sc(C)c2C)-n2c(C)nnc21 [Compound I-99] | < 0.5 | 0.5 to 1.5 | < 0.5 | 0.5 to 1.5 | – | – | – | –
11 | Cc1sc2c(c1C)C(c1ccc(N3CC(CC4CN(c5ccc(C(=O)N[C@H]6C(C)(C)[C@H](Oc7ccc(C#N)c(Cl)c7)C6(C)C)nc5)C4)C3)cc1)=N[C@@H](Cc1ncco1)c1nnc(C)n1-2 [Compound I-621] | < 0.5 | < 0.5 | < 0.5 | < 0.5 | – | – | – | –
12 | CCNC(=O)C[C@@H]1N=C(c2ccc(N3CC(CC4CN(c5ncc(C(=O)N[C@H]6C(C)(C)[C@H](Oc7ccc(C#N)c(Cl)c7)C6(C)C)cn5)C4)C3)cc2)c2c(sc(C)c2C)-n2c(C)nnc21 [Compound I-127] | < 0.5 | < 0.5 | < 0.5 | 0.5 to 1.5 | – | – | – | –
13 | CCNC(=O)C[C@@H]1N=C(c2ccc(OCCN(C)c3ncc(C(=O)N[C@H]4C(C)(C)[C@H](Oc5ccc(C#N)c(Cl)c5)C4(C)C)cn3)cc2)c2c(sc(C)c2C)-n2c(C)nnc21 [Compound I-80] | < 0.5 | < 0.5 | 0.5 to 1.5 | 0.5 to 1.5 | – | – | – | –
14 | Cc1sc2c(c1C)C(c1ccc(N3CCC(C(=O)NCc4ncc(C(=O)N[C@H]5C(C)(C)[C@H](Oc6ccc(C#N)c(Cl)c6)C5(C)C)cn4)CC3)cc1)=N[C@@H](Cc1ncco1)c1nnc(C)n1-2 [Compound I-329] | < 0.5 | < 0.5 | < 0.5 | 0.5 to 1.5 | – | – | – | –
15 | Cc1sc2c(c1C)C(c1ccc(C[C@H]3CC[C@H]4CN(c5ncc(C(=O)N[C@H]6C(C)(C)[C@H](Oc7ccc(C#N)c(Cl)c7)C6(C)C)cn5)CCN4C3)cc1)=NC(Cc1ncco1)c1nnc(C)n1-2 (some centres unmarked) [Compound I-324] | > 3 | < 0.5 | < 0.5 | < 0.5 | – | – | – | –
16 | CCNC(=O)C[C@@H]1N=C(c2ccc(CCC3CN(c4ncc(C(=O)N[C@H]5C(C)(C)[C@H](Oc6ccc(C#N)c(Cl)c6)C5(C)C)cn4)C3)cc2)c2c(sc(C)c2C)-n2c(C)nnc21 [Compound I-93] | < 0.5 | < 0.5 | 0.5 to 1.5 | 0.5 to 1.5 | – | – | – | –
17 | CCNC(=O)C[C@@H]1N=C(c2ccc(CCCOC3CCN(c4ncc(C(=O)N[C@H]5C(C)(C)[C@H](Oc6ccc(C#N)c(Cl)c6)C5(C)C)cn4)CC3)cc2)c2c(sc(C)c2C)-n2c(C)nnc21 [Compound I-87, N-[3-(3-chloro-4-cyano-phenoxy)-2,2,4,4-tetramethyl-cyclobutyl]-2-[4-[3-[4-[(9S)-9-[2-(ethylamino)-2-oxo-ethyl]-4,5,13-trimethyl-3-thia-1,8,11,12-tetrazatricyclo[8.3.0.02,6]trideca-2(6),4,7,10,12-pentaen-7-yl]phenyl]propoxy]-1-piperidyl]pyrimidine-5-carboxamide] | < 0.5 | < 0.5 | < 0.5 | < 0.5 | – | – | – | –
18 | COCC[C@@H]1N=C(c2ccc(N3CC(CC4CCN(c5cnc(C(=O)N[C@H]6C(C)(C)[C@H](Oc7ccc(C#N)c(Cl)c7)C6(C)C)cn5)CC4)C3)cc2)c2c(sc(C)c2C)-n2c(C)nnc21 [Compound I-609] | < 0.5 | 0.5 to 1.5 | < 0.5 | < 0.5 | – | – | – | –
19 | Cc1sc2c(c1C)C(c1ccc(C3CC(C4CCN(c5ncc(C(=O)N[C@H]6C(C)(C)[C@H](Oc7ccc(C#N)c(Cl)c7)C6(C)C)cn5)CC4)C3)cc1)=NC(C)c1nnc(C)n1-2 (some centres unmarked) [Compound I-467] | – | – | – | – | < 0.5 | < 0.5 | < 0.5 | > 3
20 | Cc1sc2c(c1C)C(c1ccc(Nc3ccc(N4CCN(c5ncc(C(=O)N[C@H]6C(C)(C)[C@H](Oc7ccc(C#N)c(Cl)c7)C6(C)C)cn5)CC4)c(C(F)(F)F)c3)cc1)=N[C@@H](C)c1nnc(C)n1-2 [Compound I-602] | > 3 | > 3 | > 3 | > 3 | – | – | – | –
21 | Cc1sc2c(c1C)C(c1ccc(C#CCC3CCN(c4ncc(C(=O)N[C@H]5C(C)(C)[C@H](Oc6ccc(C#N)c(Cl)c6)C5(C)C)cn4)CC3)cc1)=N[C@H](Cc1ncco1)c1nnc(C)n1-2 [Compound I-58] | < 0.5 | < 0.5 | > 3 | > 3 | – | – | – | –
22 | Cc1sc2c(c1C)C(c1ccc(O[C@@H]3CCC4(CCN(c5ncc(C(=O)N[C@H]6C(C)(C)[C@H](Oc7ccc(C#N)c(Cl)c7)C6(C)C)cn5)CC4)C3)cc1)=N[C@@H](Cc1ncco1)c1nnc(C)n1-2 [Compound I-174] | < 0.5 | 0.5 to 1.5 | < 0.5 | < 0.5 | – | – | – | –
23 | Cc1sc2c(c1C)C(c1ccc(N3CCC[C@H](C(=O)N4CCC[C@@H](c5ncc(C(=O)N[C@H]6C(C)(C)[C@H](Oc7ccc(C#N)c(Cl)c7)C6(C)C)cn5)C4)C3)cc1)=N[C@H](Cc1ncco1)c1nnc(C)n1-2 [Compound I-339] | > 3 | > 3 | > 3 | > 3 | – | – | – | –
24 | Cc1sc2c(c1C)C(c1ccc(CC3CN(C4CCN(c5ncc(C(=O)N[C@H]6C(C)(C)[C@H](Oc7ccc(C#N)c(Cl)c7)C6(C)C)cn5)C4)C3)cc1)=N[C@@H](Cc1ncco1)c1nnc(C)n1-2 (some centres unmarked) [Compound I-154] | < 0.5 | < 0.5 | < 0.5 | < 0.5 | – | – | – | –
25 | CCNC(=O)C[C@@H]1N=C(c2ccc(OC3CN(CC4CCN(c5ncc(C(=O)N[C@H]6C(C)(C)[C@H](Oc7ccc(C#N)c(Cl)c7)C6(C)C)cn5)CC4)C3)cc2)c2c(sc(C)c2C)-n2c(C)nnc21 [Compound I-79] | < 0.5 | < 0.5 | < 0.5 | 0.5 to 1.5 | – | – | – | –
26 | CC[C@@H]1N=C(c2ccc(CC3CC4(CCN(c5ccc(C(=O)N[C@H]6C(C)(C)[C@H](Oc7ccc(C#N)c(Cl)c7)C6(C)C)cn5)CC4)C3)cc2)c2c(sc(C)c2C)-n2c(C)nnc21 [Compound I-598] | < 0.5 | < 0.5 | < 0.5 | > 3 | – | – | – | –
